{"source": "PubChem BioAssay AID1259418", "about": "(Broad Institute, 2018)", "note": "“And” between values parts separate entries of the source, which are not always exact repeats. Equal entries are not always repeated. Inconclusive results are not listed. The source made the active and inactive calls.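 The calls were made as follows: active = fitted half-maximal concentration of signal decrease at or below twice the sample's top tested concentration; inconclusive = flat curve between -70 and -30 percent, or poor fit; inactive = flat within 30 percent, signal rise, or potency above limit.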", "data": [{"molecular_target": "T. gondii ME49Luc in IFN-y HeLa, luciferase, 72 h", "assay": "inhibitors of Toxoplasma growth in IFN-γ-primed HeLa – cell-based, ME49Luc, luciferase, 72 h, dose response (AID 1259418)", "values": [{"smiles": "COc1cc2c(cc1O)CC[C@@H]1[C@@H]2CC[C@]2(C)[C@@H](O)CC[C@@H]12", "AC50": "1.99 µM and 4.21 µM"}, {"smiles": "COc1ccccc1S(=O)(=O)N1CC[C@@H]2[C@H]1c1cc(-c3cccc(C#N)c3)ccc1N(C)[C@H]2CO", "AC50": "18.9 µM"}, {"smiles": "C[C@@H]1CN(Cc2ccc(F)cc2)CCN1C(=O)COc1ccc(Cl)cc1NC(N)=O", "AC50": "> 39 µM (inactive)"}, {"smiles": "COc1ccc(-c2nc(CN(c3ccccc3)S(=O)(=O)c3ccccc3)c(C)o2)cc1OC", "AC50": "3.77 µM"}, {"smiles": "COc1ccc(S(=O)(=O)N2CCCCN3[C@H](CO)[C@H](c4ccc(C#CCC(C)C)cc4)[C@H]3C2)cc1", "AC50": "5.52 µM"}, {"smiles": "CC(C)CNC(=O)c1nc2c(s1)CCN(C(=O)NCc1ccccc1)CC2", "AC50": "16.1 µM"}, {"smiles": "Cc1ccccc1S(=O)(=O)N1CC[C@H]2[C@H](CO)Nc3ccc(-c4ccc(F)cc4)cc3[C@H]21", "AC50": "28.5 µM"}, {"smiles": "O=S(=O)(c1ccc2c(c1)CCCC2)N1CCC2(CC1)NCCN=C2NCc1ccccc1", "AC50": "12.9 µM"}, {"smiles": "COc1ccc(OC)c(S(=O)(=O)N2CCc3c([nH]c4ccccc34)C2c2cc(F)ccc2F)c1", "note": "(stereo not given)", "AC50": "> 39 µM (inactive)"}, {"smiles": "CCc1nc(OCC(=O)NCc2ccc(SC)cc2)c2ccccc2n1", "AC50": "> 39 µM (inactive)"}, {"smiles": "CCCNC(=O)N1CCN(Cc2nc(-c3ccc(C)cc3)oc2C)CC1", "AC50": "26.1 µM"}, {"smiles": "COc1ccccc1C1CN(Cc2cccc(O)c2)Cc2ccccc2O1", "note": "(stereo not given)", "AC50": "34.4 µM and 27.5 µM"}, {"smiles": "O=C(C(=O)N1CCN(c2ncnc3c2nnn3Cc2ccccc2)CC1)c1c[nH]c2ccccc12", "AC50": "13.5 µM"}, {"smiles": "COc1cccc(S(=O)(=O)N2CCCCN3[C@H](CO)[C@H](c4ccc(C#CC5CC5)cc4)[C@H]3C2)c1", "AC50": "10.8 µM and 2.78 µM"}, {"smiles": "COc1ccc(-c2nc(NCCN3CCCCC3C)c3ccccc3n2)cc1", "note": "(stereo not given)", "AC50": "13.4 µM"}, {"smiles": "Cc1oc(-c2cccc(Cl)c2)nc1CN1CCc2c(sc3c2CCCC3)C1c1ccccc1", "note": "(stereo not given)", "AC50": "6.85 µM"}, {"smiles": "O=C(C[C@H]1CC[C@H]2[C@@H](COC[C@@H](O)CN2Cc2ccc(Oc3ccccc3)cc2)O1)N1CCN(c2ccccc2)CC1", "AC50": "15.2 µM and 32.3 µM"}, {"smiles": "Cc1oc(-c2cccc(Cl)c2)nc1CN(c1ccccc1)S(=O)(=O)c1ccccc1", "AC50": "6.63 µM"}, {"smiles": "C(=C\\c1ccc(C2[C@@H]3CN(Cc4nccs4)C[C@H]2N3)cc1)/c1ccccc1", "note": "(stereo not given in full)", "AC50": "17.1 µM"}, {"smiles": "Cc1nc(CCNC(=O)C2CCN(C(=O)c3cccc(Cl)c3)CC2)cs1", "AC50": "31.5 µM"}, {"smiles": "COC1(C)CC2C(CC1OC(=O)c1cc([N+](=O)[O-])cc([N+](=O)[O-])c1)C2(C)C", "note": "(stereo not given)", "AC50": "12.4 µM"}, {"smiles": "CC(C)C#Cc1ccc([C@H]2[C@@H](C#N)N(C(=O)c3cccc(F)c3)[C@H]2CO)cc1", "AC50": "> 39 µM (inactive)"}, {"smiles": "O=C(Cc1ccccn1)N1CC(=O)N2[C@H](CO)[C@H](c3ccc(C#CCC4CCCC4)cc3)[C@H]2C1", "AC50": "19.4 µM and 8.78 µM"}, {"smiles": "O=S(=O)(c1ccc2c(c1)CCCC2)N1CCC2(CC1)NCCN=C2NC1CCCCCC1", "AC50": "9.95 µM"}, {"smiles": "COc1ccccc1-c1nc(Cn2nnc(-c3nc(-c4ccc(C)cc4)no3)c2C)c(C)o1", "AC50": "> 20 µM (inactive)"}, {"smiles": "O=C(CCC1N=C2c3ccccc3N=C(SCc3cccc(F)c3)N2C1=O)NCc1cccs1", "note": "(stereo not given)", "AC50": "20.3 µM"}, {"smiles": "COc1ccc(NC(=O)N2CCCCN3[C@H](CO)[C@@H](c4ccc(-c5ccccc5F)cc4)[C@@H]3C2)cc1", "AC50": "29.6 µM"}, {"smiles": "COc1ccccc1-c1nc(Cn2nnc(-c3nc(-c4cccc(C(F)(F)F)c4)no3)c2C)c(C)o1", "AC50": "> 20 µM (inactive)"}, {"smiles": "COc1ccccc1-c1ccc([C@H]2[C@H](CO)N[C@@H]2C#N)cc1", "AC50": "24 µM"}, {"smiles": "COc1ccccc1-c1nc(CN(c2ccc(C)cc2)S(=O)(=O)c2cccs2)c(C)o1", "AC50": "30.4 µM"}, {"smiles": "COc1ccc(S(=O)(=O)N2CCCCN3[C@H](C2)[C@@H](c2ccc(C#CCC(C)C)cc2)[C@@H]3CO)cc1", "AC50": "12.3 µM"}, {"smiles": "C=C(C)[C@@H]1CC[C@]2(C(=O)O)CC[C@]3(C)[C@H](CC[C@@H]4[C@@]5(C)CC[C@H](O)C(C)(C)[C@@H]5CC[C@]43C)[C@@H]12", "AC50": "30 µM"}, {"smiles": "COCCn1c(=S)[nH]c2cc(C(=O)N3CCC(O)(c4cccc(C(F)(F)F)c4)CC3)ccc2c1=O", "AC50": "34.1 µM"}, {"smiles": "COc1cccc(C(=O)Nc2ccc3c(c2)C(=O)N(C)[C@H]2CC[C@@H](CC(=O)N[C@@H](C)c4ccccc4)O[C@H]2CO3)c1", "AC50": "> 39 µM (inactive)"}, {"smiles": "Cc1ccc(CSC2=Nc3ccccc3C3=NC(CCC(=O)NCc4cccs4)C(=O)N23)cc1", "note": "(stereo not given)", "AC50": "17.5 µM"}, {"smiles": "CCc1cnc(N2[C@@H](C#N)[C@@H](c3ccc(C#Cc4ccccc4F)cc3)[C@@H]2CO)s1", "AC50": "17.2 µM"}, {"smiles": "COc1ccccc1NC(=O)N1C[C@H](O)COC[C@@H]2O[C@@H](CC(=O)N3CCC(Cc4ccccc4)CC3)CC[C@H]21", "AC50": "22.9 µM and > 39 µM (inactive)"}, {"smiles": "CN(C)CC(=O)N1[C@H](C#N)[C@H](c2ccc(C#CC3CCCCC3)cc2)[C@@H]1CO", "AC50": "14.8 µM"}, {"smiles": "COc1ccccc1CNC1=NCCNC12CCN(S(=O)(=O)c1ccc(Cl)s1)CC2", "AC50": "17 µM"}, {"smiles": "COc1cccc(CNC2=NCCNC23CCN(S(=O)(=O)c2cc(C)c(C)cc2C)CC3)c1", "AC50": "9.29 µM"}, {"smiles": "CCOc1ccc(-c2nc(CN(c3ccccc3OC)S(=O)(=O)c3cccs3)c(C)o2)cc1", "AC50": "8.23 µM"}, {"smiles": "Cn1ncnc1[C@H]1c2n[nH]c(=O)c3cc(F)cc(c23)N[C@@H]1c1ccc(F)cc1", "AC50": "38.6 µM"}, {"smiles": "Cc1nc(CCNC(=O)[C@H]2CCCN2C(=O)c2cccc(F)c2)cs1", "AC50": "29.2 µM"}, {"smiles": "COc1ccc(-c2nc(NCCCN3CCCC(C)C3)c3ccccc3n2)cc1", "note": "(stereo not given)", "AC50": "> 20 µM (inactive)"}, {"smiles": "Cc1ccc(-c2nc(CN(c3ccccc3)S(=O)(=O)c3ccccc3)c(C)o2)cc1", "AC50": "10.3 µM"}, {"smiles": "Cc1ccc(Nc2nc(-c3ccccc3Cl)nc3ccccc23)cc1", "AC50": "14.2 µM"}, {"smiles": "COc1ccccc1-c1nc(CN(c2ccccc2OC)S(=O)(=O)c2ccccc2C)c(C)o1", "AC50": "6.87 µM"}, {"smiles": "O=C(Cc1ccncc1)N1CCCCN2[C@H](CO)[C@@H](c3ccc(C#Cc4ccccc4F)cc3)[C@H]2C1", "AC50": "18.5 µM"}, {"smiles": "COc1ccc(-c2nc(CN(c3ccccc3)S(=O)(=O)c3cccs3)c(C)o2)cc1OC", "AC50": "6.84 µM"}, {"smiles": "O=C(C1CCCCC1)N1CCC2(CC1)Nc1ccc(Cl)cc1-n1cccc12", "AC50": "24.7 µM"}, {"smiles": "Cc1cc(Nc2cc(N3CCN(C)CC3)nc(Sc3ccc(NC(=O)C4CC4)cc3)n2)n[nH]1", "AC50": "13.8 µM"}, {"smiles": "COCC1CN(C(=O)c2ccccc2F)Cc2cnn(CC3CC3)c21", "note": "(stereo not given)", "AC50": "35.8 µM"}, {"smiles": "CC(C)COC1CC2(CCN(C(=O)c3cccn3C)CC2)C1", "AC50": "14.6 µM"}, {"smiles": "COc1ccccc1N(Cc1nc(-c2cccc(C)c2)oc1C)S(=O)(=O)c1ccccc1", "AC50": "13.3 µM"}, {"smiles": "CCc1cnc(N2[C@H](C#N)[C@H](c3ccc(-c4cccc(F)c4)cc3)[C@H]2CO)s1", "AC50": "21.3 µM"}, {"smiles": "COc1cc(OC)cc(C(=O)N2CCC3(CC2)Nc2cc(OC)ccc2-n2cccc23)c1", "AC50": "30.1 µM"}, {"smiles": "O=C(Cc1ccncc1)N1CCCCN2[C@@H](CO)[C@H](c3ccc(C#Cc4ccccc4F)cc3)[C@@H]2C1", "AC50": "13.5 µM and 17.9 µM"}, {"smiles": "N#C[C@@H]1[C@@H](c2ccc(C3=CCCCC3)cc2)[C@@H](CO)N1S(=O)(=O)c1ccccc1", "AC50": "> 39 µM (inactive) and 5.52 µM"}, {"smiles": "COc1ccc(-c2nc(N(Cc3ccco3)CC3CCCO3)c3ccccc3n2)cc1", "note": "(stereo not given)", "AC50": "31.8 µM"}, {"smiles": "Cc1ccc(CSC2=Nc3ccccc3C3=NC(CCC(=O)NCc4cccs4)C(=O)N23)c(C)c1", "note": "(stereo not given)", "AC50": "21.4 µM"}, {"smiles": "CC1CCCCN1CCNc1nc(-c2ccc(Cl)cc2)nc2ccccc12", "note": "(stereo not given)", "AC50": "10.9 µM and 12.7 µM"}, {"smiles": "O=C(CCC1N=C2c3ccccc3N=C(SCc3ccc(F)cc3)N2C1=O)NCc1ccccc1", "note": "(stereo not given)", "AC50": "31.8 µM"}, {"smiles": "O=S(=O)(c1ccc2c(c1)CCCC2)N1CCC2(CC1)NCCN=C2NCc1cc(F)cc(F)c1", "AC50": "4.41 µM"}, {"smiles": "CC(C)C#Cc1ccc([C@@H]2[C@@H](CO)N(C(=O)c3cccc(F)c3)[C@H]2C#N)cc1", "AC50": "14.2 µM and 27.9 µM"}, {"smiles": "CC(C)C#Cc1ccc([C@H]2[C@@H](CO)N3C(=O)CN(S(=O)(=O)c4ccccc4)C[C@H]23)cc1", "AC50": "13.6 µM"}]}]}
